Results published in patent US20090111781A1, “Use of Cymipristone Type Compounds in Aids Treatment” (SHANGHAI THREE-ALLIANCE BIOTECHNOLOGIES CO., LTD., priority 2005, published 2009).

Biological target: T1, androgen receptor (AR) (Homo sapiens, UniProt P10275)
T1 sequence (P10275 1-920): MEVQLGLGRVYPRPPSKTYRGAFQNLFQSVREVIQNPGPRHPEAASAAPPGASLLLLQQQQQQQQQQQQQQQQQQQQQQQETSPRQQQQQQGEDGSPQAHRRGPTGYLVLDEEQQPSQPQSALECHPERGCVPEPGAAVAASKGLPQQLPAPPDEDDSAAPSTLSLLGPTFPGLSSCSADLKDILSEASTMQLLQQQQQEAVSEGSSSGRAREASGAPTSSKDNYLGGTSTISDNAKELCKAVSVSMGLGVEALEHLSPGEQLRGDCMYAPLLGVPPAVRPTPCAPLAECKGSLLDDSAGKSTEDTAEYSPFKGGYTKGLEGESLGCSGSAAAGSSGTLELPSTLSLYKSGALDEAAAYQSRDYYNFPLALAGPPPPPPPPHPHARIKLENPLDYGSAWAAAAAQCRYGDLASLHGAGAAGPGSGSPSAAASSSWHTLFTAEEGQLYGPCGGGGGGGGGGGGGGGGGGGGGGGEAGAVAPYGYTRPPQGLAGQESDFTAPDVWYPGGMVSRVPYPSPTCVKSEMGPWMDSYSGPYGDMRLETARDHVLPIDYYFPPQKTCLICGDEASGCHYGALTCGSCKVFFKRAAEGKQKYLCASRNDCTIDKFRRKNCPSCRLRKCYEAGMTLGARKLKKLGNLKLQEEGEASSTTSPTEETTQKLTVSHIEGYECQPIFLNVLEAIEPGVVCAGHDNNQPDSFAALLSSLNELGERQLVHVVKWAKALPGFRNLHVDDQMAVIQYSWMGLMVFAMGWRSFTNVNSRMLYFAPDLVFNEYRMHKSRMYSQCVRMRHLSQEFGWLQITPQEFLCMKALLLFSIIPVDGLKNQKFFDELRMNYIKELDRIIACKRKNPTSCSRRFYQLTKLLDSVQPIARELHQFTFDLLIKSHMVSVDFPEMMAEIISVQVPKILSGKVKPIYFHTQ
Assay: Binding activity on human nuclear receptor AR
Settings: mean ± SD, n = 4
Method: Buffer solution is composed of 25 mM NaPO4, 20 mM NaMoO4, 10 mM KF and 10% glycerol (pH=7.3) and stored under 4° C. Stock solution is prepared with CHAPS and DTT and stored under −20° C. […] Add 2.5 μl/hole into 96-pore plate. Take out appropriate amount of buffer solution reserve into solution to make the final concentration of CHAPS and DDT to become 0.25 mM and 2 mM respectively. Add protease inhibitors (aprotinin and leupeptin) to make its final concentration to become 1 μg/μl, and place in an ice bath. After adding human nuclear receptor GR (1:8), PR (1:100), ER (1:2000), AR (1:200) and MR (1:40) into the reaction system respectively, adequately mix suitable quantity of [^3H]-dexamethasone, [^3H]-progesterone, [^3H]-estradiol and [^3H]-DHT (from Amersham), rapidly add into 96-pore plate (100 μl/pore) and incubate overnight under 4° C. On the next day, add 25 μl of hydroxyapatite suspension into each pore and mix with shaking. After incubating for 10 min, separate by centrifuge for 3 min at 2500 rpm. The precipitate is washed with 100 μl of buffer solution and separated by centrifuge twice. Add 150 μl of scintillation solution (from Perkin Elmer) into each pore, mix with shaking and count by MicroBeta counter.

Structure (SMILES): CC#C[C@]1(O)CC[C@H]2[C@@H]3CCC4=CC(=O)CCC4=C3[C@@H](c3ccc(N(C)C4CCCCC4)cc3)C[C@@]21C [Cymipristone, 11β-[4-(N-methyl-N-cyclohexylamino)phenyl]-17α-(1-propynyl)-17β-hydroxyl-4,9-estradiene-3-one]
- IC50: 69.6 ± 15.4 nM
